Drawing on ChEMBL document CHEMBL5321219, “Selective degradation of cellular BRD3 and BRD4-L promoted by PROTAC molecules in six cancer cell lines” (Eur J Med Chem, 2023), this text covers Activity and IC50 for one compound.

Activity calls are given as the source filed them. The calls are words filed in the database; no cut-off is given here.

What is called IC50 is the concentration at which inhibition is half-maximal.

Experiment [1] concerns MM1.S. The experiment can be described thus: Induction of cell cycle arrest in human MM1.S cells assessed as accumulation of cells at G2 phase at 30 nM incubated for 24 hrs by flow cytometry analysis (reference value: 14.68%). The format is functional. (In flow cytometry, cells or beads pass a laser one at a time.)
For experiment [2], the system named is MM1.S. The experiment can be described thus: Induction of cell cycle arrest in human MM1.S cells assessed as accumulation of cells at G1 phase at 300 nM incubated for 24 hrs by flow cytometry analysis (reference value: 56.32%). The format is functional.
Experiment [3] has as its target T1, Protein cereblon/Bromodomain-containing protein 4 (Homo sapiens) (UniProt O60885+Q96SW2). Kind of experiment: PROTAC activity at CRBN/BRD4-L in human MM1.S cells assessed as induction of protein degradation measured after 24 hrs by Western blot analysis. The format is cell-based.
The test system of experiment [4] is MM1.S. The experiment can be described thus: Induction of cell cycle arrest in human MM1.S cells assessed as accumulation of cells at G1 phase at 100 nM incubated for 24 hrs by flow cytometry analysis (reference value: 56.32%). The format is functional.
The subject of experiment [5] is MM1.S. Kind of experiment: Downregulation of p21 protein expression in human MM1.S cells at 0.1 to 30 nM measured after 24 hrs by Western blot analysis. The format is functional, cell-based. The settings on record: dose 0.1-30 nM. Background: Immunoblotting shows a protein as a band on a membrane.
Experiment [6] addresses T2, Protein cereblon/Bromodomain-containing protein 3 (Homo sapiens) (UniProt Q15059+Q96SW2). Kind of experiment: PROTAC activity at CRBN/BRD3 in human MV4-11 cells assessed as induction of protein degradation at 0.1 to 10 nM measured after 24 hrs by Western blot analysis. Format: cell-based. The settings on record: dose 0.1-10 nM.
The target in experiment [7] is T2, Protein cereblon/Bromodomain-containing protein 3 (Homo sapiens). Kind of experiment: PROTAC activity at CRBN/BRD3 in human MM1.S cells assessed as induction of protein degradation at 30 nM by Western blot analysis. Format: cell-based. The settings on record: TDE = time-dependent effect.
Experiment [8] has as its target T1, Protein cereblon/Bromodomain-containing protein 4 (Homo sapiens). The experiment can be described thus: PROTAC activity at CRBN/BRD4-L in human MM1.S cells assessed as induction of protein degradation at 30 nM pretreated with (6R)-N-(4-chlorophenyl)-1-methyl-8-(1-methyl-1H-pyrazol-4-yl)-5,6-dihydro-4H-benzo[f][1,2,4]triazolo[4,3-a]azepin-6-amine for 2 hrs followed by compound addition and measured after 4 hrs by Western blot analysis. Format: cell-based.

The test system of the next experiment is MV4-11. The experiment can be described thus: Antiproliferative activity against human MV4-11 cells assessed as cell growth inhibition measured after 3 days by CellTitre-Glo assay. Format: functional, cell-based. The settings on record: MV4-11, 72 h.
In experiment [9] the target is T2, Protein cereblon/Bromodomain-containing protein 3 (Homo sapiens). Kind of experiment: PROTAC activity at CRBN/BRD3 in human MCF7 cells assessed as induction of protein degradation at 30 nM measured after 3 to 6 hrs by Western blot analysis. The format is cell-based. The settings on record: time 3-6 hrs.
Experiment [10] has the same target. The experiment can be described thus: PROTAC activity at CRBN/BRD3 in human MM1.S cells assessed as induction of protein degradation at 30 nM pretreated with (6R)-N-(4-chlorophenyl)-1-methyl-8-(1-methyl-1H-pyrazol-4-yl)-5,6-dihydro-4H-benzo[f][1,2,4]triazolo[4,3-a]azepin-6-amine for 2 hrs followed by compound addition and measured after 4 hrs by Western blot analysis. Format: cell-based.

Experiment [11] has the same target. The experiment can be described thus: PROTAC activity at CRBN/BRD3 in human MCF7 cells assessed as induction of protein degradation measured after 24 hrs by Western blot analysis. Format: cell-based. The settings on record: dose 1-300 nM.
For experiment [12], the target named is T1, Protein cereblon/Bromodomain-containing protein 4 (Homo sapiens). Kind of experiment: PROTAC activity at CRBN/BRD4-S in human U-937 cells assessed as induction of protein degradation by Western blot analysis. The format is cell-based.
Experiment [13] shares this target. The experiment can be described thus: PROTAC activity at CRBN/BRD4-S in human MM1.S cells assessed as induction of protein degradation at 0.1 to 30 nM measured after 24 hrs by Western blot analysis. The settings on record: dose 0.1-30 nM. Format: cell-based.

T2 sequence (Q15059 2-726 limits assumed): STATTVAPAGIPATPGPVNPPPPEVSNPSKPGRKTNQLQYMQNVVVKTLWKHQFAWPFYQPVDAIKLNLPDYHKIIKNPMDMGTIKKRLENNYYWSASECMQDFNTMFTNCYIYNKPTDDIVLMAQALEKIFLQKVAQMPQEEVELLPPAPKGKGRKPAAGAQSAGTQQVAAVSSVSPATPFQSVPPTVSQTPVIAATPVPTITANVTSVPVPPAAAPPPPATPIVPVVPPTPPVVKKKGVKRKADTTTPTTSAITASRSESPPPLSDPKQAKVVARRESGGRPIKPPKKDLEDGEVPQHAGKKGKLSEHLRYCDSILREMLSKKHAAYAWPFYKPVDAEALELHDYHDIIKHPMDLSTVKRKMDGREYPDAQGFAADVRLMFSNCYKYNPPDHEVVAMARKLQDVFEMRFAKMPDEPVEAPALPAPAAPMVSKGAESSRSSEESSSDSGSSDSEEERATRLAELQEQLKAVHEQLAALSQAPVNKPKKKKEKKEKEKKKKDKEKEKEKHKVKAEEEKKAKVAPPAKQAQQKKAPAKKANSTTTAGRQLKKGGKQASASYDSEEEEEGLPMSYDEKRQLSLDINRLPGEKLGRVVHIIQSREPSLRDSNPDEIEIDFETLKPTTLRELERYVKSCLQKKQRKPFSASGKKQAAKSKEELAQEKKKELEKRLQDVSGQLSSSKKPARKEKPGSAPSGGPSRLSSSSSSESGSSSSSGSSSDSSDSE
T2 sequence (Q96SW2 whole entry partner): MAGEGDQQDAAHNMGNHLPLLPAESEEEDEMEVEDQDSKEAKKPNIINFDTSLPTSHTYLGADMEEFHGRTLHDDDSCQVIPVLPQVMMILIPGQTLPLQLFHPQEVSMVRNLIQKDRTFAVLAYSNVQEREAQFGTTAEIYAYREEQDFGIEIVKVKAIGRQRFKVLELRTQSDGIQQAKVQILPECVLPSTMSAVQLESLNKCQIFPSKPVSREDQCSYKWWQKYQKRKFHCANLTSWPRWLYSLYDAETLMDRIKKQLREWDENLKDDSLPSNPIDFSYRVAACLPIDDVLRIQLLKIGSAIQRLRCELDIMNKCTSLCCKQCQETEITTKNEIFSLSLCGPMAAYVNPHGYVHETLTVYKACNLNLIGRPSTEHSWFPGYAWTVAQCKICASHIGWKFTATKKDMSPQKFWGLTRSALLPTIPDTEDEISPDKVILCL
T1 sequence (Q96SW2 whole entry, looked up, other chains not shown): as the sequence (Q96SW2 whole entry partner) above

As for `Cc1nnc2n1-c1ccc(-c3ccc(CNCCCCc4cccc5c4CN(C4CCC(=O)NC4=O)C5=O)cc3)cc1C(Nc1ccc(Cl)cc1)CC2` (centres undefined), the Activity was 15.18% in the experiment on MM1.S [1]; 68.85% in the experiment with MM1.S [2]; “Dose-Dependent Effect” in [3]; 65.67% in the experiment on MM1.S [4]; “Tde” in [7]; “Dose-Dependent Effect” in experiment [11]. In addition, the Activity result in experiment [12] was “Dose-Dependent Effect”. Besides, the outcome (in the experiment with MM1.S [5]; in [9]) was Active. Moreover, the outcome in experiment [6], in [8], in [10] and in [13] was inactive. For the same compound, the IC50 in the experiment on MV4-11 was determined as 6.31 nM.
